What was measured:
Experiment in all cases: GRmax, 72 h; higher = less effect;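 note: breast cell lines in 384-well plates, nine doses across a 10^4 range, Dye Drop imaging of viable cells vs DMSO and time-zero plates, GR 0 means no net growth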
[1] = test system: BT20
[2] = test system: BT549
[3] = test system: EFM19
[4] = test system: HCC1937
[5] = test system: MCF12A
[6] = test system: MDAMB175VII
[7] = test system: PDX1258
[8] = test system: PDXHCI002
[9] = test system: SKBR3
[10] = test system: SUM1315
[11] = test system: UACC812
[12] = test system: UACC893

COc1ccc2c(c1)[C@]1(C[C@H]1c1ccc3c(/C=C/c4ccc(CN5C[C@@H](C)O[C@@H](C)C5)cc4)n[nH]c3c1)C(=O)N2
GRmax, 72 h [1]: -0.231 GR
GRmax, 72 h [2]: 0.0324 GR
GRmax, 72 h [3]: 0.146 GR
GRmax, 72 h [4]: -0.149 GR
GRmax, 72 h [5]: 0.0038 GR
GRmax, 72 h [6]: 0.046 GR
GRmax, 72 h [7]: -0.0552 GR
GRmax, 72 h [8]: 0.107 GR
GRmax, 72 h [9]: -0.0682 GR
GRmax, 72 h [10]: -0.232 GR
GRmax, 72 h [11]: -0.135 GR
GRmax, 72 h [12]: 0.138 GR

COc1cccc(OCCCN)c1-c1cc(Nc2cnc(C#N)cn2)n[nH]1
GRmax, 72 h [1]: -0.2 GR
GRmax, 72 h [2]: -0.422 GR
GRmax, 72 h [3]: 0.929 GR
GRmax, 72 h [4]: 0.0059 GR
GRmax, 72 h [5]: -0.167 GR
GRmax, 72 h [6]: 0.0945 GR
GRmax, 72 h [7]: -0.457 GR
GRmax, 72 h [8]: 0.705 GR
GRmax, 72 h [9]: -0.406 GR
GRmax, 72 h [10]: -0.419 GR
GRmax, 72 h [11]: 0.528 GR
GRmax, 72 h [12]: 0.365 GR

CC(=O)Nc1cccc(-n2c(=O)n(C3CC3)c(=O)c3c(Nc4ccc(I)cc4F)n(C)c(=O)c(C)c32)c1 (max 1 µM)
GRmax, 72 h [1]: 0.503 GR
GRmax, 72 h [2]: 0.598 GR
GRmax, 72 h [3]: 0.952 GR
GRmax, 72 h [4]: 0.689 GR
GRmax, 72 h [5]: -0.0287 GR
GRmax, 72 h [6]: -0.698 GR
GRmax, 72 h [7]: 0.85 GR
GRmax, 72 h [8]: 0.642 GR
GRmax, 72 h [9]: 0.683 GR
GRmax, 72 h [10]: 0.133 GR
GRmax, 72 h [11]: -0.119 GR
GRmax, 72 h [12]: -0.0662 GR

CCc1cnn2c(NCc3ccc[n+]([O-])c3)cc(N3CCCC[C@H]3CCO)nc12 (max 1 µM)
GRmax, 72 h [1]: -0.698 GR
GRmax, 72 h [2]: -0.292 GR
GRmax, 72 h [3]: -0.532 GR
GRmax, 72 h [4]: -0.207 GR
GRmax, 72 h [5]: -0.327 GR
GRmax, 72 h [6]: -0.493 GR
GRmax, 72 h [7]: -0.617 GR
GRmax, 72 h [8]: -0.361 GR
GRmax, 72 h [9]: -0.621 GR
GRmax, 72 h [10]: -0.667 GR
GRmax, 72 h [11]: -0.942 GR
GRmax, 72 h [12]: -0.641 GR

CC(=O)c1c(C)c2cnc(Nc3ccc(N4CCNCC4)cn3)nc2n(C2CCCC2)c1=O (max 3.162 µM)
GRmax, 72 h [1]: 0.162 GR
GRmax, 72 h [2]: 1.08 GR
GRmax, 72 h [3]: 0.308 GR
GRmax, 72 h [4]: 1.08 GR
GRmax, 72 h [5]: 0.684 GR
GRmax, 72 h [6]: -0.0887 GR
GRmax, 72 h [7]: 1.02 GR
GRmax, 72 h [8]: 0.277 GR
GRmax, 72 h [9]: 0.35 GR
GRmax, 72 h [10]: 0.3 GR
GRmax, 72 h [11]: -0.142 GR
GRmax, 72 h [12]: 0.344 GR

CCc1cncnc1N1CCN(Cc2nc3ccc(C(F)(F)F)cc3[nH]2)CC1 (max 10 µM)
GRmax, 72 h [1]: 0.66 GR
GRmax, 72 h [2]: 0.744 GR
GRmax, 72 h [3]: 0.921 GR
GRmax, 72 h [4]: 0.769 GR
GRmax, 72 h [5]: 0.964 GR
GRmax, 72 h [6]: -0.426 GR
GRmax, 72 h [7]: 0.775 GR
GRmax, 72 h [8]: 0.873 GR
GRmax, 72 h [9]: 0.734 GR
GRmax, 72 h [10]: 0.595 GR
GRmax, 72 h [11]: -0.22 GR
GRmax, 72 h [12]: 0.351 GR

CCCCOc1c(C(=O)c2c(F)cc(C)cc2F)c[nH]c2nncc1-2 (max 10 µM)
GRmax, 72 h [1]: -0.105 GR
GRmax, 72 h [2]: -0.149 GR
GRmax, 72 h [3]: 0.188 GR
GRmax, 72 h [4]: -0.0492 GR
GRmax, 72 h [5]: 0.338 GR
GRmax, 72 h [6]: -0.0619 GR
GRmax, 72 h [7]: -0.232 GR
GRmax, 72 h [8]: 0.217 GR
GRmax, 72 h [9]: -0.0172 GR
GRmax, 72 h [10]: -0.296 GR
GRmax, 72 h [11]: -0.394 GR
GRmax, 72 h [12]: 0.117 GR

CCN1CCN(Cc2ccc(Nc3ncc(F)c(-c4cc(F)c5nc(C)n(C(C)C)c5c4)n3)nc2)CC1 (max 10 µM)
GRmax, 72 h [1]: -0.216 GR
GRmax, 72 h [2]: 0.0333 GR
GRmax, 72 h [3]: 0.267 GR
GRmax, 72 h [4]: 0.302 GR
GRmax, 72 h [5]: 0.393 GR
GRmax, 72 h [6]: -0.192 GR
GRmax, 72 h [7]: -0.331 GR
GRmax, 72 h [8]: -0.677 GR
GRmax, 72 h [9]: 0.143 GR
GRmax, 72 h [10]: -0.144 GR
GRmax, 72 h [11]: -0.603 GR
GRmax, 72 h [12]: -0.22 GR

CNc1nc(-c2ccc3c(N)n[nH]c3c2)cc(N2C[C@@H](C(=O)NC3CCCCC3)CC[C@H]2C)n1 (max 10 µM)
GRmax, 72 h [1]: 0.68 GR
GRmax, 72 h [2]: 0.666 GR
GRmax, 72 h [3]: 0.292 GR
GRmax, 72 h [4]: 0.585 GR
GRmax, 72 h [5]: 0.8 GR
GRmax, 72 h [6]: -0.459 GR
GRmax, 72 h [7]: 0.644 GR
GRmax, 72 h [8]: 0.867 GR
GRmax, 72 h [9]: 0.307 GR
GRmax, 72 h [10]: 0.421 GR
GRmax, 72 h [11]: 0.166 GR
GRmax, 72 h [12]: 0.144 GR

CO[C@@H](C)Cn1c(=O)n(C)c2cnc3ccc(-c4cncc(C(C)(C)O)c4)cc3c21 (max 10 µM)
GRmax, 72 h [1]: -0.645 GR
GRmax, 72 h [2]: -0.0177 GR
GRmax, 72 h [3]: -0.255 GR
GRmax, 72 h [4]: 0.0369 GR
GRmax, 72 h [5]: 0.133 GR
GRmax, 72 h [6]: -0.938 GR
GRmax, 72 h [7]: -0.344 GR
GRmax, 72 h [8]: -0.0949 GR
GRmax, 72 h [9]: -0.502 GR
GRmax, 72 h [10]: -0.216 GR
GRmax, 72 h [11]: -0.663 GR
GRmax, 72 h [12]: -0.84 GR

Cc1nn(C)c(COc2ccc(N3CCN(S(=O)(=O)N(C)C)CC3)cc2)c1-c1cccc2c(CCCOc3cccc4ccccc34)c(C(=O)O)n(CCN3CCOCC3)c12 (max 10 µM)
GRmax, 72 h [1]: 0.821 GR
GRmax, 72 h [2]: 0.954 GR
GRmax, 72 h [3]: 1 GR
GRmax, 72 h [4]: 0.724 GR
GRmax, 72 h [5]: 0.993 GR
GRmax, 72 h [6]: 0.705 GR
GRmax, 72 h [7]: 0.919 GR
GRmax, 72 h [8]: 0.981 GR
GRmax, 72 h [9]: 0.627 GR
GRmax, 72 h [10]: 0.74 GR
GRmax, 72 h [11]: 0.991 GR
GRmax, 72 h [12]: 0.763 GR

CN(C)CC[C@H](CSc1ccccc1)Nc1ccc(S(=O)(=O)NC(=O)c2ccc(N3CCN(Cc4ccccc4-c4ccc(Cl)cc4)CC3)cc2)cc1[N+](=O)[O-] [ABT-737] (max 10 µM)
GRmax, 72 h [1]: 0.593 GR
GRmax, 72 h [2]: 0.936 GR
GRmax, 72 h [3]: 0.475 GR
GRmax, 72 h [4]: 0.269 GR
GRmax, 72 h [5]: 0.979 GR
GRmax, 72 h [6]: -0.101 GR
GRmax, 72 h [7]: 0.758 GR
GRmax, 72 h [8]: 0.146 GR
GRmax, 72 h [9]: 0.947 GR
GRmax, 72 h [10]: 0.306 GR
GRmax, 72 h [11]: 0.329 GR
GRmax, 72 h [12]: 0.49 GR

C=CCn1c(=O)c2cnc(Nc3ccc(N4CCN(C)CC4)cc3)nc2n1-c1cccc(C(C)(C)O)n1 [AZD1775] (max 10 µM)
GRmax, 72 h [1]: -0.677 GR
GRmax, 72 h [2]: -0.456 GR
GRmax, 72 h [3]: -0.425 GR
GRmax, 72 h [4]: -0.0795 GR
GRmax, 72 h [5]: -0.21 GR
GRmax, 72 h [6]: -0.203 GR
GRmax, 72 h [7]: -0.46 GR
GRmax, 72 h [8]: -0.347 GR
GRmax, 72 h [9]: -0.561 GR
GRmax, 72 h [10]: -0.747 GR
GRmax, 72 h [11]: -0.598 GR
GRmax, 72 h [12]: -0.42 GR

CNC(=O)c1cccc(-c2ccc3c(N4CCOC[C@@H]4C)nc(N4CCOC[C@@H]4C)nc3n2)c1 [AZD2014] (max 10 µM)
GRmax, 72 h [1]: 0.151 GR
GRmax, 72 h [2]: 0.089 GR
GRmax, 72 h [3]: -0.0465 GR
GRmax, 72 h [4]: 0.366 GR
GRmax, 72 h [5]: 0.147 GR
GRmax, 72 h [6]: -0.756 GR
GRmax, 72 h [7]: -0.118 GR
GRmax, 72 h [8]: 0.489 GR
GRmax, 72 h [9]: -0.0488 GR
GRmax, 72 h [10]: 0.0994 GR
GRmax, 72 h [11]: -0.585 GR
GRmax, 72 h [12]: -0.164 GR

NC1(C(=O)N[C@@H](CCO)c2ccc(Cl)cc2)CCN(c2nc[nH]c3nccc2-3)CC1 [AZD5363] (max 10 µM)
GRmax, 72 h [1]: 0.229 GR
GRmax, 72 h [2]: 0.557 GR
GRmax, 72 h [3]: 0.23 GR
GRmax, 72 h [4]: 0.504 GR
GRmax, 72 h [5]: 0.617 GR
GRmax, 72 h [6]: -0.28 GR
GRmax, 72 h [7]: 0.321 GR
GRmax, 72 h [8]: 1.08 GR
GRmax, 72 h [9]: 0.138 GR
GRmax, 72 h [10]: 0.694 GR
GRmax, 72 h [11]: 0.485 GR
GRmax, 72 h [12]: -0.798 GR

C[C@@H]1COCCN1c1cc(C2([S@](C)(=N)=O)CC2)nc(-c2cc[nH]c3nccc2-3)n1 [AZD6738] (max 10 µM)
GRmax, 72 h [1]: 0.187 GR
GRmax, 72 h [2]: -0.099 GR
GRmax, 72 h [3]: 0.845 GR
GRmax, 72 h [4]: 0.298 GR
GRmax, 72 h [5]: -0.0672 GR
GRmax, 72 h [6]: 0.149 GR
GRmax, 72 h [7]: -0.295 GR
GRmax, 72 h [8]: 0.734 GR
GRmax, 72 h [9]: -0.0886 GR
GRmax, 72 h [10]: -0.169 GR
GRmax, 72 h [11]: 0.305 GR
GRmax, 72 h [12]: 0.429 GR
